According to US10961215B2, “N-aryl and N-heteroaryl piperidine derivatives as liver X receptor beta agonists, compositions, and their use” (Merck Sharp & Dohme Corp., priority 2016, dated 2021):

Key:
[1] = molecular target: T1, GST tagged LXRbeta LBD (ligand binding domain) (Homo sapiens, UniProt P55055); experiment: LanthaScreen TR-FRET Liver X Receptor Coactivator Assay, LXR beta-LBD (co-activator recruitment; IP and % Emax relative to T0901317); type: biochemical; details: for EC50: Inflection Point of co-activator recruitment, LXR beta-LBD, TR-FRET; for Emax / LXR beta actiivty at max dose (%): efficacy at max dose in relation to reference T0901317, LXR beta-LBD; for Emax: read-out: LXR beta actiivty at max dose (%)
T1 construct: purchased Invitrogen pv4658.pps
T1 sequence (P55055 222-460 limits assumed): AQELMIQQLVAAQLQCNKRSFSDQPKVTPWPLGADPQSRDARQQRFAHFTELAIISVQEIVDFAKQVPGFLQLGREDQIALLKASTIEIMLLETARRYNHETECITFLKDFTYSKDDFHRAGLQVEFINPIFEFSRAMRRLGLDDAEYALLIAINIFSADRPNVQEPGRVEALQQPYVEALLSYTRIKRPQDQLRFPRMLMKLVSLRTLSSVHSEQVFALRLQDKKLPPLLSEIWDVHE
In short: (§1)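 Compounds were first combined with the GST-LBD protein. A premixed fluorescein coactivator peptide and terbium-labelled anti-GST antibody was then added. Plates were incubated at room temperature and TR-FRET measured.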

[2] = molecular target: T2, GST tagged LXRalpha LBD (ligand binding domain) (Homo sapiens, UniProt Q13133); experiment: LanthaScreen TR-FRET Liver X Receptor Coactivator Assay, LXR alpha-LBD (co-activator recruitment; IP and % Emax relative to T0901317); type: biochemical; details: for EC50 / LXR alpha IP (nM): Inflection Point of co-activator recruitment, LXR alpha-LBD, TR-FRET; for Emax / LXR alpha actiivty at max dose (%): efficacy at max dose in relation to reference T0901317, LXR alpha-LBD; for Emax: read-out: LXR alpha actiivty at max dose (%)
T2 construct: purchased Invitrogen pv4655
T2 sequence (Q13133 209-447 limits assumed): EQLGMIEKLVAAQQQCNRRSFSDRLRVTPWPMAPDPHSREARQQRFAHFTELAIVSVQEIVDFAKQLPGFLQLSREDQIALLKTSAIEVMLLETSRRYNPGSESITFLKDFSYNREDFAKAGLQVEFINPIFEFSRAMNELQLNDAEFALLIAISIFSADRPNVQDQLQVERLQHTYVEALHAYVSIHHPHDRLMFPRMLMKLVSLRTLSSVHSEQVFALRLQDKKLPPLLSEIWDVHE
In short: as §1

Row | Compound | EC50 [1] [nM] | Emax [1] [%] | EC50 [2] [nM] | Emax [2] [%] | LXR alpha IP (nM) [2] | LXR beta actiivty at max dose (%) [1] [%] | LXR alpha actiivty at max dose (%) [2] [%]
1 | CC(C)[C@](O)(C(=O)N(C)CCCC1CCN(c2ccc(C(=O)N(C)C)c(Cl)n2)CC1)C(F)(F)F [Example 1-4, (S)-2-chloro-6-(4-(3-(2-hydroxy-N,3-dimethyl-2-(trifluoromethyl)butanamido)propyl)piperidin-1-yl)-N,N-dimethylnicotinamide] | 82 | 92 | 1180 | 52 |  |  | 
2 | CC(C)[C@]1(C(=O)N(C)CCCC2CCN(c3ccc(C(=O)N(C)C)c(Cl)n3)CC2)CCCO1 [Example 1-19, (S)-2-chloro-6-(4-(3-(2-isopropyl-N-methyl-tetrahydrofuran-2-carboxamido)propyl)piperidin-1-yl)-N,N-dimethylnicotinamide] | 1040 | 41 | 17400 | 38 |  |  | 
3 | CN(C)C(=O)c1ccc(N2CCC(CCCN(C)C(=O)[C@@]3(c4ccccc4)CCCO3)CC2)nc1Cl [Example 1-38, (S)-2-chloro-N,N-dimethyl-6-(4-(3-(N-methyl-2-phenyltetrahydrofuran-2-carboxamido)propyl)piperidin-1-yl)nicotinamide] | 156 | 78 | 1920 | 18 |  |  | 
4 | CN(C)C(=O)c1ccc(N2CCC(CCCN(C)C(=O)[C@@]3(c4cccc(Cl)c4)CCCO3)CC2)nc1Cl [Example 1-63, (S)-2-chloro-6-(4-(3-(2-(3-chlorophenyl)-N-methyltetrahydrofuran-2-carboxamido)propyl)piperidin-1-y)-N,N-dimethylnicotinamide] | 368 | 40 |  | 0 | No IP |  | 
5 | COc1ccccc1[C@@]1(C(=O)N(C)CCCC2CCN(c3ccc(C(=O)N(C)C)c(Cl)n3)CC2)CCCO1 [Example 1-60, (R)-2-chloro-6-(4-(3-(2-(2-methoxyphenyl)-N-methyltetrahydrofuran-2-carboxamido)propyl)piperidin-1-yl)-N,N-dimethylnicotinamide] | 60 | 93 | 1450 | 33 |  |  | 
6 | COc1cccc([C@@](O)(C(=O)N(C)CCCC2CCN(c3ccc(C(=O)N(C)CCO)c(Cl)n3)CC2)C(F)(F)F)c1 [Example 2-5, (R)-2-chloro-N-(2-hydroxyethyl)-N-methyl-6-(4-(3-(3,3,3-trifluoro-2-hydroxy-2-(3-methoxyphenyl)-N-methylpropanamido)propyl)piperidin-1-yl)nicotinamide] | 28 | 63 | 705 | 23 |  |  | 
7 | CN(C)C(=O)c1ccc(N2CCC(CCCN(C)C(=O)C(O)(c3ccccc3)C(F)(F)F)CC2)cc1Cl (single isomer, unassigned) [Example 4-7, 2-chloro-N,N-dimethyl-4-(4-(3-(3,3,3-trifluoro-2-hydroxy-N-methyl-2-phenylpropanamido)propyl)piperidin-1-yl)benzamide] | 369 |  |  |  | No IP | 48 | 12
8 | CCN(CC)C(=O)c1ccc(N2CCC(CCCN(C)C(=O)[C@](O)(c3cccc(OC)c3)C(F)(F)F)CC2)cc1Cl [Example 4-9, (R)-2-chloro-N,N-diethyl-4-(4-(3-(3,3,3-trifluoro-2-hydroxy-2-(3-methoxyphenyl)-N-methylpropanamido)propyl)piperidin-1-yl)benzamide] | 72 | 40 |  | 0 | No IP |  | 
9 | COc1cccc([C@](O)(C(=O)N(C)CCCC2CCN(c3ccc(C(=O)N(C)C)c(Cl)n3)CC2)C(F)F)c1 [Example 1-13, (S)-2-chloro-6-(4-(3-(3,3-difluoro-2-hydroxy-2-(3-methoxyphenyl)-N-methylpropanamido)propyl)piperidin-1-yl)-N,N-dimethylnicotinamide] | 148 | 63 |  | 0 | No IP |  | 
10 | CN(C)C(=O)c1ccc(N2CCC(CCCN(C)C(=O)[C@](O)(c3ccccc3)C(F)(F)F)CC2)nc1C#N [Example 2-19, (R)-2-cyano-N,N-dimethyl-6-(4-(3-(3,3,3-trifluoro-2-hydroxy-N-methyl-2-phenylpropanamido)propyl)piperidin-1-yl)nicotinamide] | 128 | 76 | 2610 | 23 |  |  | 
11 | CN(C)C(=O)c1ccc(N2CCC(CCCN(C)C(=O)C3(c4ccccc4)CCOCC3)CC2)nc1Cl [Example 1-17, 2-chloro-N,N-dimethyl-6-(4-(3-(N-methyl-4-phenyl-tetrahydro-2H-pyran-4-carboxamido)propyl)piperidin-1-yl)nicotinamide] | 290 | 55 |  | 7 | No IP |  | 

Results, then the compound that gave them:

Row | EC50 [1] [nM] | Emax [1] [%] | EC50 [2] [nM] | Emax [2] [%] | LXR alpha IP (nM) [2] | LXR beta actiivty at max dose (%) [1] [%] | LXR alpha actiivty at max dose (%) [2] [%] | Compound
12 | 79 | 64 | 765 | 47 |  |  |  | CC(C)NC(=O)c1ccc(N2CCC3(CC2)C[C@@H]3CCN(C)C(=O)[C@](O)(c2ccccc2)C(F)(F)F)cc1Cl [Example 7-12, 2-chloro-N-isopropyl-4-((R)-1-(2-((R)-3,3,3-trifluoro-2-hydroxy-N-methyl-2-phenylpropanamido)ethyl)-6-azaspiro[2.5]octan-6-yl)benzamide]
13 | 990 | 66 |  | 7 | No IP |  |  | CN(C)C(=O)c1ccc(N2CCC(CCCNC(=O)[C@@]3(c4ccccc4)CCCO3)CC2)nc1Cl [Example 5-18, (S)-2-chloro-N,N-dimethyl-6-(4-(3-(2-phenyltetrahydrofuran-2-carboxamido)propyl)piperidin-1-yl)nicotinamide]
14 | 1330 | 39 | 3780 | 29 |  |  |  | CNC(=O)c1ccc(N2CCC([C@H]3C[C@H]3CNC(=O)[C@](O)(c3ccccc3)C(F)(F)F)CC2)nc1Cl [Example 15-12, 2-chloro-N-methyl-6-(4-((1R,2R)-2-(((R)-3,3,3-trifluoro-2-hydroxy-2-phenylpropanamido)methyl)cyclopropyl)piperidin-1-yl)nicotinamide]
15 | 763 |  |  |  | No IP | 66 | 8 | CN(C)C(=O)c1ccc(N2CCC([C@@H]3C[C@H]3CNC(=O)[C@@](O)(c3ccccc3)C(F)(F)F)CC2)cc1Cl [Example 15-18, 2-chloro-N,N-dimethyl-4-(4-((1S,2R)-2-(((S)-3,3,3-trifluoro-2-hydroxy-2-phenylpropanamido)methyl)cyclopropyl)piperidin-1-yl)benzamide]
16 | 654 | 35 |  | 1 | No IP |  |  | COc1cccc([C@@](O)(C(=O)N(C)CCC2CC3(CCN(c4ccc(C(=O)NC5CC5)c(Cl)n4)CC3)C2)C(F)(F)F)c1 [Example 13-3, 2-chloro-N-cyclopropyl-6-(2-(2-((R)-3,3,3-trifluoro-2-hydroxy-2-(3-methoxyphenyl)-N-methylpropanamido)ethyl)-7-azaspiro[3.5]nonan-7-yl)nicotinamide]
17 | 518 | 25 |  | 0 | No IP |  |  | COc1cccc([C@](O)(C(=O)N(C)C[C@@H]2C[C@@H]2CC2CCN(c3ccc(C(=O)N(C)C)c(Cl)n3)CC2)C(F)(F)F)c1 [Example 18-3, 2-chloro-N,N-dimethyl-6-(4-(((1S,2R)-2-(((S)-3,3,3-trifluoro-2-hydroxy-2-(3-methoxyphenyl)-N-methylpropanamido)methyl)cyclopropyl)methyl)piperidin-1-yl)nicotinamide]
18 | 561 | 72 |  | 16 | No IP |  |  | CN(C)C(=O)c1ccc(N2CCC(CCCNC(=O)C(C)(C)c3ccccc3)CC2)cc1Cl [Example 5-4, 2-chloro-N,N-dimethyl-4-(4-(3-(2-methyl-2-phenylpropanamido)propyl)piperidin-1-yl)benzamide]
19 | 264 | 23 |  | 0 | No IP |  |  | CN(C)C(=O)c1ccc(N2CCC3(CC2)CC3CCCN(C)C(=O)C(C)(C)c2ccccc2)cc1Cl (centres unmarked) [Example 7-34, 2-chloro-4-(1-(3-(N,2-dimethyl-2-phenylpropanamido)propyl)-6-azaspiro[2.5]octan-6-yl)-N,N-dimethylbenzamide]
20 | 151 | 58 |  | 12 | No IP |  |  | COc1cccc([C@@](O)(C(=O)N(C)CCCC2(F)CCN(c3ccc(C(=O)N(C)C)c(Cl)n3)CC2)C(F)(F)F)c1 [Example 12-3, (R)-2-chloro-6-(4-fluoro-4-(3-(3,3,3-trifluoro-2-hydroxy-2-(3-methoxyphenyl)-N-methylpropanamido)propyl)piperidin-1-yl)-N,N-dimethylnicotinamide]
